Assays:
ΔF508-CFTR [1] = target: T1, ΔF508-CFTR (Homo sapiens, UniProt P13569, DEL508-508); test: CFTR cell surface levels using HRP-tagged ΔF508-CFTR expressing CFBE cells, intrinsic corrector capacity; format: cell-based
T1 construct: host or cells: CFBE41o-, doxycycline-inducible
How it was run: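 Here the cells express ΔF508-CFTR with horseradish peroxidase inserted in extracellular loop 4, so only rescued channel at the surface gives luminescent signal. Compounds act on their own, 20 h at the reduced temperature of 33 °C; values are percent activity relative to DMSO and a 3 μM corrector.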

ΔF508-CFTR [2] = target: T1, ΔF508-CFTR; test: CFTR cell surface levels using HRP-tagged ΔF508-CFTR expressing CFBE cells, in the presence of a co-corrector; format: cell-based
How it was run: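 Cells were seeded with 0.5 μg/mL doxycycline and held 68 h at 37 °C. Test compounds plus 3 μM co-corrector (final 0.1% DMSO) were then added for 20 h at 33 °C. Washed cells received HRP substrate, and luminescence was normalized between DMSO and 3 μM co-corrector controls.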

[3] = HRP-tagged ΔF508-CFTR expressing CFBE cells, intrinsic corrector capacity (no co-corrector), 33° C., 20 hours
[4] = HRP-tagged ΔF508-CFTR expressing CFBE cells, intrinsic corrector capacity (no co-corrector), 33° C., 20 hours, read-out: EC50
[5] = HRP-tagged ΔF508-CFTR expressing CFBE cells, in the presence of 3 μM co-corrector
[6] = HRP-tagged ΔF508-CFTR expressing CFBE cells, in the presence of 3 μM co-corrector, read-out: EC50
[7] = HRP-tagged ΔF508-CFTR CFBE41o- cells, compounds alone (intrinsic corrector capacity), 20 hours at 33° C., positive control 3 μM corrector
[8] = HRP-tagged ΔF508-CFTR CFBE41o- cells, compounds alone (intrinsic corrector capacity), 20 hours at 33° C., read-out: EC50

T1 sequence (P13569 with tags, fused parts or gaps DEL508-508): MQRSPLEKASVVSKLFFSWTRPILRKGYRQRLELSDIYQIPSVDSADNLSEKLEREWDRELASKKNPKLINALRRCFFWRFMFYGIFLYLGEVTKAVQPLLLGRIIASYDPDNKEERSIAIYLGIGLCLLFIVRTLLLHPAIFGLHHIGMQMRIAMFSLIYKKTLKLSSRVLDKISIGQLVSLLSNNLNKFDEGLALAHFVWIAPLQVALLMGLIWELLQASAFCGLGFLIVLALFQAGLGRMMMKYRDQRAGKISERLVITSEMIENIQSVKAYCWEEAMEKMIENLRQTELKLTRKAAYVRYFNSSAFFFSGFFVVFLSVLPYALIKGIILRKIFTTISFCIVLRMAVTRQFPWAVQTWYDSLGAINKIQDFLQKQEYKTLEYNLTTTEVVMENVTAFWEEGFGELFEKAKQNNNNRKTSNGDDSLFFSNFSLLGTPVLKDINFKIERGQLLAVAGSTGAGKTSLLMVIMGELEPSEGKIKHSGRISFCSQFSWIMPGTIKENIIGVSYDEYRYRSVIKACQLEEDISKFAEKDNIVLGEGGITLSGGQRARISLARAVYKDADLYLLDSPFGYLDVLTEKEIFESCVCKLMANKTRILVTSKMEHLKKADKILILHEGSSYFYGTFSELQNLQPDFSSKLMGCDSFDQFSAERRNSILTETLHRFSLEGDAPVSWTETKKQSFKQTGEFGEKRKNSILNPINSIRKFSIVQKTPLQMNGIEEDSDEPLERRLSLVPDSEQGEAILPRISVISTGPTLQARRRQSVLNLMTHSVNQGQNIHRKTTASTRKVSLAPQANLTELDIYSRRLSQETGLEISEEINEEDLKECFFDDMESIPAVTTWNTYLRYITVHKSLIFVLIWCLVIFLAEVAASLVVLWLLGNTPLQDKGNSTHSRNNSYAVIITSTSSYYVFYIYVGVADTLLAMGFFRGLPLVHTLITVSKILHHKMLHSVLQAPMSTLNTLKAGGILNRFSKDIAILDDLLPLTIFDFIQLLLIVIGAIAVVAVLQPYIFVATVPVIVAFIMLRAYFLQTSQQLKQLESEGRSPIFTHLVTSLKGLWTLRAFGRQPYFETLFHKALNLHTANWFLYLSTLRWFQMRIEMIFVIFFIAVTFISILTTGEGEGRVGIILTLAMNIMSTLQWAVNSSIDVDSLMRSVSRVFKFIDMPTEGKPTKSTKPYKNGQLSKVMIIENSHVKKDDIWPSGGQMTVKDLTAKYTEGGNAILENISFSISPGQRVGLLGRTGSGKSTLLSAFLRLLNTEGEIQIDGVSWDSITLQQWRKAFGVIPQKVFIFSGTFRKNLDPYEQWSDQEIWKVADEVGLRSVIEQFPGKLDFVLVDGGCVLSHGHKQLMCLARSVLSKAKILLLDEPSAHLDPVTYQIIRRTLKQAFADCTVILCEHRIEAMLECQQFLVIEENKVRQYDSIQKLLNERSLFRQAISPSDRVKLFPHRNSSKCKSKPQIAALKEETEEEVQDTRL

Row | SMILES | % Activation (ΔF508-CFTR [1]; [3]) | EC50 (ΔF508-CFTR [1]; [4]) | % Activation (ΔF508-CFTR [2]; [5]) | EC50 (ΔF508-CFTR [2]; [6]) | % Activation (ΔF508-CFTR [1]; [7]) | EC50 (ΔF508-CFTR [1]; [8]) | EC50 (ΔF508-CFTR [1]) | EC50 (ΔF508-CFTR [2]) | % Activation (ΔF508-CFTR [1]; HRP-tagged ΔF508-CFTR CFBE cells, compound alone (intrinsic corrector capacity), 20 hours at 33° C.) | EC50 (ΔF508-CFTR [1]; HRP-tagged ΔF508-CFTR CFBE cells, compound alone (intrinsic corrector capacity), 20 hours at 33° C., read-out: EC50)
1 | CCN(CC)C1CCN(c2cc(C(=O)O)nc3c2c(C(C)C)nn3-c2ccc(F)cc2)CC1 [compound 787, 4-[4-(diethylamino)piperidin-1-yl]-1-(4-fluorophenyl)-3-(propan-2-yl)-1H-pyrazolo[3,4-b]pyridine-6-carboxylic acid] | 121.5% | 771 nM | 309.9% | 1300 nM |  |  |  |  |  | 
2 | Cc1ncn(C)c(=O)c1CCN1CCN(c2cc(C(=O)O)nc3c2c(C2CCC2)nn3-c2ccccc2)CC1 [compound 502, 3-cyclobutyl-4-{4-[2-(1,4-dimethyl-6-oxo-1,6-dihydropyrimidin-5-yl)ethyl]piperazin-1-yl}-1-phenyl-1H-pyrazolo[3,4-b]pyridine-6-carboxylic acid] | 152% | 3340 nM | 327% | 1350 nM |  |  |  |  |  | 
3 | Cc1nn(-c2ccccc2)c2nc(C(=O)O)cc(N3CC4(CCCC4)C3)c12 [compound 307, 4-(2-azaspiro[3.4]octan-2-yl)-3-methyl-1-phenyl-1H-pyrazolo[3,4-b]pyridine-6-carboxylic acid] |  |  | 233.4% | 1540 nM | 77.423% | 1920 nM |  |  |  | 
4 | N#CC1CCN(c2ccc(-c3cc(C(=O)O)nc4c3c([C@H]3C[C@H](F)C3)nn4-c3ccccc3)cn2)CC1 [compound 433, 4-[6-(4-cyanopiperidin-1-yl)pyridin-3-yl]-3-(trans-3-fluorocyclobutyl)-1-phenyl-1H-pyrazolo[3,4-b]pyridine-6-carboxylic acid] | 185.45% | 629 nM | 369.1% | 367 nM |  |  |  |  |  | 
5 | O=C(O)c1cc(-c2ccc(N3CCOCC3)cc2)c2c(C3CCC3)nn(-c3cc(F)cc(F)c3)c2n1 [compound 353, 3-cyclobutyl-1-(3,5-difluorophenyl)-4-[4-(morpholin-4-yl)phenyl]-1H-pyrazolo[3,4-b]pyridine-6-carboxylic acid] |  |  | 438.65% | 459 nM | 224.1% | 506 nM |  |  |  | 
6 | O=C(O)c1cc(N2CCC(N3CCCC(C(F)(F)F)C3)CC2)c2c(C3CCC3)nn(-c3ccc(F)cc3)c2n1 (stereo not shown) [compound 874, 3-cyclobutyl-1-(4-fluorophenyl)-4-[3-(trifluoromethyl)[1,4′-bipiperidin]-1′-yl]-1H-pyrazolo[3,4-b]pyridine-6-carboxylic acid] | 330.7% | 170 nM | 608.35% | 83 nM |  |  |  |  |  | 
7 | O=C(O)c1cc(N2CCC(N3CCOCC3)CC2)c2c(C3CCC3)nn(-c3ccc(F)c(F)c3)c2n1 [compound 907, 3-cyclobutyl-1-(3,4-difluorophenyl)-4-[4-(morpholin-4-yl)piperidin-1-yl]-1H-pyrazolo[3,4-b]pyridine-6-carboxylic acid] | 270.7% | 260 nM | 483.65% | 183 nM |  |  |  |  |  | 
8 | COC(C)C1CCN(c2cc(C(=O)O)nc3c2c(C2CCC2)nn3-c2ccccc2)CC1 (stereo not shown) [compound 498, 3-cyclobutyl-4-[4-(1-methoxyethyl)piperidin-1-yl]-1-phenyl-1H-pyrazolo[3,4-b]pyridine-6-carboxylic acid] | 244.33% | 326 nM | 435.9% | 87.8 nM |  |  |  |  |  | 
9 | Cc1cccc(-n2nc(C(C)C)c3c(N4CC(F)C4)cc(C(=O)O)nc32)c1 [compound 174, 4-(3-fluoroazetidin-1-yl)-1-(3-methylphenyl)-3-(propan-2-yl)-1H-pyrazolo[3,4-b]pyridine-6-carboxylic acid] |  |  | 260.12% | 2540 nM | 90.21% | 3240 nM |  |  |  | 
10 | CC(C)c1nn(-c2ccc(F)cc2)c2nc(C(=O)O)cc(N3CCCN(C)CC3)c12 [compound 769, 1-(4-fluorophenyl)-4-(4-methyl-1,4-diazepan-1-yl)-3-(propan-2-yl)-1H-pyrazolo[3,4-b]pyridine-6-carboxylic acid] | 19.25% | 5000 nM | 157.2% | 1580 nM |  |  |  |  |  | 
11 | CC(C)c1nn(-c2ccc(F)cc2)c2nc(C(=O)O)cc(N3CCC[C@@H](O)C3)c12 [compound 783, 1-(4-fluorophenyl)-4-[(3R)-3-hydroxypiperidin-1-yl]-3-(propan-2-yl)-1H-pyrazolo[3,4-b]pyridine-6-carboxylic acid] | 95.05% | 1670 nM | 283.6% | 1670 nM |  |  |  |  |  | 
12 | CC(C)c1nn(C2CCCC2)c2nc(C(=O)O)cc(-c3cnc(N(C)C)nc3)c12 [compound 67, 1-cyclopentyl-4-[2-(dimethylamino)pyrimidin-5-yl]-3-(propan-2-yl)-1H-pyrazolo[3,4-b]pyridine-6-carboxylic acid] |  |  | 280.35% | 1260 nM | 117.6% | 1590 nM |  |  |  | 
13 | Cc1nn(-c2ccccc2)c2nc(C(=O)O)cc(N3CCC(N4CCOCC4)CC3)c12 [compound 324, 3-methyl-4-[4-(morpholin-4-yl)piperidin-1-yl]-1-phenyl-1H-pyrazolo[3,4-b]pyridine-6-carboxylic acid] |  |  | 279.1% | 2510 nM | 93.32% | 2510 nM |  |  |  | 
14 | O=C(O)c1cc(OCC(F)(F)F)c2c(C3CCC3)nn(-c3ccccc3)c2n1 [compound 613, 3-cyclobutyl-1-phenyl-4-(2,2,2-trifluoroethoxy)-1H-pyrazolo[3,4-b]pyridine-6-carboxylic acid] | 99.78% | 1600 nM | 292% | 739 nM |  |  |  |  |  | 
15 | CC(C)COC1CCN(c2cc(C(=O)O)nc3c2c(C(C)C)nn3-c2ccc(F)cc2)CC1 [compound 396, 1-(4-fluorophenyl)-4-[4-(2-methylpropoxy)piperidin-1-yl]-3-(propan-2-yl)-1H-pyrazolo[3,4-b]pyridine-6-carboxylic acid] | 209.3% | 403 nM | 409.8% | 301 nM |  |  |  |  |  | 
16 | Cc1nn(-c2ccccc2)c2nc(C(=O)O)cc(OC[C@H](F)C3CCN(C)CC3)c12 [compound 380, 4-[(2R)-2-fluoro-2-(1-methylpiperidin-4-yl)ethoxy]-3-methyl-1-phenyl-1H-pyrazolo[3,4-b]pyridine-6-carboxylic acid] |  |  | 141.7% | 950 nM | 14.735% | 5010 nM |  |  |  | 
17 | O=C(O)c1cc(N2CCC(F)(F)CC2)c2c(C3CCC3)nn(-c3ccccc3)c2n1 [compound 594, 3-cyclobutyl-4-(4,4-difluoropiperidin-1-yl)-1-phenyl-1H-pyrazolo[3,4-b]pyridine-6-carboxylic acid] | 75.66% | 787 nM | 269.8% | 621 nM |  |  |  |  |  | 
18 | O=C(O)c1cc(N2CC(OCC(F)F)C2)c2c(C3CCC3)nn(-c3ccccc3)c2n1 [compound 513, 3-cyclobutyl-4-[3-(2,2-difluoroethoxy)azetidin-1-yl]-1-phenyl-1H-pyrazolo[3,4-b]pyridine-6-carboxylic acid] | 141.7% | 371 nM | 349.6% | 472 nM |  |  |  |  |  | 
19 | CC(C)c1nn(C2CCCCC2)c2nc(C(=O)O)cc(-c3ccc(N(C)C4CCOCC4)cc3)c12 [compound 254, 1-cyclohexyl-4-{4-[methyl(oxan-4-yl)amino]phenyl}-3-(propan-2-yl)-1H-pyrazolo[3,4-b]pyridine-6-carboxylic acid] |  |  | 417.67% | 333 nM | 234.6% | 611 nM |  |  |  | 
20 | CC(C)(C)OC(=O)N1CC[C@@H]2CN(c3cc(C(=O)O)nc4c3c(C3CCC3)nn4-c3ccccc3)CC[C@@H]21 (racemic) [compound 549, rac-4-[(3aR,7aS)-1-(tert-butoxycarbonyl)octahydro-5H-pyrrolo[3,2-c]pyridin-5-yl]-3-cyclobutyl-1-phenyl-1H-pyrazolo[3,4-b]pyridine-6-carboxylic acid] | 302.2% |  | 467.2% |  |  |  | 211 nM | 61.7 nM |  | 
21 | COc1cc(F)cc(-n2nc(C3CCC3)c3c(N4CCC(N5CCOCC5)CC4)cc(C(=O)O)nc32)c1 [compound 913, 3-cyclobutyl-1-(3-fluoro-5-methoxyphenyl)-4-[4-(morpholin-4-yl)piperidin-1-yl]-1H-pyrazolo[3,4-b]pyridine-6-carboxylic acid] |  |  | 531.4% | 163 nM |  |  |  |  | 326.3% | 1150 nM
22 | O=C(O)c1cc(N2CCCOCC2)c2c(C3CCC3)nn(-c3ccccc3)c2n1 [compound 545, 3-cyclobutyl-4-(1,4-oxazepan-4-yl)-1-phenyl-1H-pyrazolo[3,4-b]pyridine-6-carboxylic acid] | 109.4% | 1150 nM | 247.05% | 563 nM |  |  |  |  |  | 

Reference: patent US9796711B2, “Substituted pyrazolo[3,4-b]pyridin-6-carboxylic acids and method of use” (AbbVie S.àr.l., priority 2015, dated 2017)
